Values of other authors in patent publication US20060009471A1, “Amido compounds and their use as pharmaceuticals” (priority 2004, published 2006).

Target: T1, 11βHSD1 in the eye (Homo sapiens, UniProt P28845)
T1 construct: host or cells: eye (non-pigmented epithelial cells) of healthy volunteers, in vivo
Details: healthy volunteers, after seven days of carbenoxolone treatment

T1 sequence (P28845 whole entry): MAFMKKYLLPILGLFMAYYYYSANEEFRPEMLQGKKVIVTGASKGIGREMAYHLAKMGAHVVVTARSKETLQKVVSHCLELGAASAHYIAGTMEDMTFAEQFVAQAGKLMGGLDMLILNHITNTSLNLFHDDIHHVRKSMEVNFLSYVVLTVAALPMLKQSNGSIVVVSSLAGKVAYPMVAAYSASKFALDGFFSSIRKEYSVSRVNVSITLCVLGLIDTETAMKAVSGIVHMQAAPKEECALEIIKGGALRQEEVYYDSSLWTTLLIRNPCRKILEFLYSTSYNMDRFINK

IOP reduced: 18%
SMILES: CC1(C)[C@@H](OC(=O)CCC(=O)O)CC[C@]2(C)[C@H]3C(=O)C=C4[C@@H]5C[C@@](C)(C(=O)O)CC[C@]5(C)CC[C@@]4(C)[C@]3(C)CC[C@@H]12 [carbenoxolone]
